According to patent US9364496B2 (ONCOGENEX TECHNOLOGIES INC., priority 2013, dated 2016):
Values joined by “and” are separate entries in the source; they are usually repeats but may differ in a detail not shown here. Equal entries are not always repeated. Marks after values point to notes of the source that are not given here. Oligonucleotides are written 5' to 3', each unit as a sugar letter and its base; * is a phosphorothioate linkage, no mark a phosphodiester; rarer units and linkages stand in square brackets, end groups in braces. Plain capitals give the bases only. e = 2'-O-(2-methoxyethyl) (MOE); [5mC] = 5-methylcytosine; d = 2'-deoxy (DNA)

Experiments:
myeloma = assay type: in vivo, human; settings: each group; loading doses then custirsen with a chemotherapeutic agent
Source text: At least 50 myeloma patients are separated into two groups.

[1] = tested on: RPMI 8226 (human myeloma) xenograft; test: In vivo activity of custirsen with Velcade, RPMI 8226 xenograft (Example 14); settings: for % of baseline / Δ %: weight
Description: The cells were implanted subcutaneously into female SCID mice with 7×10^6 cells inoculum.
Tumors and body weights were measured weekly until termination of the study on day 71. Response to treatment was evaluated for tumor growth inhibition (TGI) and tumor growth delay (TGD).
70 CB.17 SCID female mice, 4-6 weeks old, 16-20 grams, obtained from Harlan animal breeding center.
Sample from the cell suspension was taken for counting (0.3 ml in duplicates for CEDEX) before spun down. Cell viability was 85.6% and live cell concentration was 167×10^5 cells/ml. The pellet was resuspended in HBSS to a final volume of 8 ml.
Tumors were implanted subcutaneously with RPMI-8226 cells into the right flank of the mouse on Day 0. Each animal received a s.c. injection 7×10^6 cells in 0.1 ml suspension. On day 20, mice were sorted by the optimal tumor volume ([…]) and were allocated into 5 groups of 10 mice. Mice were individually tagged and their tumor volume and body weight were monitored weekly during the study. Tumor size was measured by caliper and calculated using the formula: […]
The treatment started on […] (0.2 ml per 20 grams v/w) and continued till day 52, after which the remaining mice were left for observation until day 71.

[2] = Custirsen 40 mg/kg ip qd*5, twk, day 51
[3] = OGX 40 ip qd*5, twk, Day 48, group mean
[4] = OGX 40 ip qd*5, twk, Day 48, individual mice, listed as OGX
[5] = OGX 40 ip qd*5, twk, Day 51, group mean
[6] = OGX 40 ip qd*5, twk, Day 51, individual mice, listed as OGX
[7] = OGX 40 ip qd*5, twk, Day 58, individual mice, listed as OGX
[8] = OGX 40 ip qd*5, twk, Day 63, individual mice, listed as OGX
[9] = OGX 40 ip qd*5, twk, earlier day (day not given), group mean
[10] = OGX 40 ip qd*5, twk, earlier day (day not given), group mean, tumor
[11] = OGX 40 ip qd*5, twk, earlier day (day not given), individual mouse, listed as OGX
[12] = OGX 40 ip qd*5, twk, earlier day (day not given), individual mouse, tumor, listed as OGX
[13] = OGX 40 ip qd*5, twk, group Mean, n 9
[14] = OGX 40 ip qd*5, twk, group Mean, n 9, vs Day 20

## Custirsen: anti-clusterin antisense oligonucleotide CAGCAGCAGAGTCTTCATCAT, phosphorothioate backbone, 2′-O-methoxyethyl at nucleotides 1-4 and 18-21, 5-methylcytosines at 1, 4, 19 (antisense e[5mC]*eA*eG*e[5mC]*dA*dG*dC*dA*dG*dA*dG*dT*dC*dT*dT*dC*dA*eT*e[5mC]*eA*eT; listed as Homo sapiens)
myeloma
  cancer condition of patients: improves
[1]; Custirsen 40 mg/kg ip qd*5, twk, day 34
  Max BW (mean) reduction: −4.7%
[1]; [2]
  % TGI day 51: 46* %
  No. of CR: 0
  No. of PR: 0
  No. of TRD: 1
  No. og nTRD: 0
  Δ mean tumor volume, (mean ± se): 667 ± 87
[1]; Custirsen 40 mg/kg ip qd*5, twk, day 51, listed as Custersin
  % TGI day 51: 46%
[1]; [3]
  volume: 649.2
  weight: 19.8
  Δ % (weight): 5.3%
  Δ volume: 503.8
  Δ weight: 1.0
[1]; [4]
  % of baseline (weight): 105.6% and 110.6% and 103.7% and 103.8% and 102.1% and 113.0% and 103.2% and 101.2%
  volume: 495 and 354 and 689 and 763 and 717 and 1076 and 483 and 593 and 671
  weight: 18.73 and 18.93 and 21.36 and 20.43 and 19.03 and 20.83 and 20.79 and 18.98 and 19.13
  Δ % (weight): 5.6% and 10.6% and 3.7% and 3.8% and 2.1% and 13.0% and 4.2% and 3.2% and 1.2%
  Δ volume: 371.9 and 229.1 and 550.6 and 621.8 and 571.9 and 925.7 and 329.0 and 431.2 and 502.7
  Δ weight: 1.0 and 1.8 and 0.8 (3×) and 0.4 and 2.4 and 0.6 and 0.2
[1]; [5]
  volume: 812.8
  weight: 19.8
  Δ % (weight): 5.3%
  Δ volume: 667.3
  Δ weight: 1.0
[1]; [6]
  % of baseline (weight): 103.8% and 109.8% and 102.5% and 102.7% and 114.2% and 100.4%
  volume: 687 and 392 and 817 and 923 and 1031 and 1324 and 603 and 734 and 804
  weight: 18.40 and 18.79 and 21.71 and 20.17 and 19.13 and 21.06 and 20.78 and 18.47 and 19.87
  Δ % (weight): 3.8% and 9.8% and 5.4% and 2.5% and 2.7% and 14.2% and 4.2% and 0.4% and 5.1%
  Δ volume: 563.6 and 267.5 and 678.0 and 781.6 and 885.6 and 1173.4 and 448.7 and 571.8 and 635.5
  Δ weight: 0.7 and 1.7 and 1.1 and 0.5 (2×) and 2.6 and 0.8 and 0.1 and 1.0
[1]; [7]
  % of baseline (weight): 105.6% and 110.0% and 108.4%
  volume: 797 and 560 and 1319
  weight: 18.72 and 18.84 and 22.31
  Δ % (weight): 5.6% and 10.0% and 8.4%
  Δ volume: 673.0 and 435.6 and 1180.5
  Δ weight: 1.0 and 1.7 (2×)
[1]; [8]
  % of baseline (weight): 112.4% and 108.7%
  volume: 1127 and 848 and 2000
  weight: 18.57 and 19.25 and 22.39
  Δ % (weight): 4.7% and 12.4% and 8.7%
  Δ volume: 1003.4 and 723.2 and 1861.0
  Δ weight: 0.8 and 2.1 and 1.8
[1]; [9]
  weight: 20.3
  Δ weight: 1.5
  % of baseline: 108.0%
  Δ %: 8.0%
[1]; [10]
  volume: 1278.9
  Δ volume: 1133.5
[1]; [11]
  weight: 20.77 and 19.53 and 21.42 and 21.45 and 19.51 and 20.43
  Δ weight: 1.1 (2×) and 0.9 and 3.0 and 1.5 (2×)
  % of baseline: 116.2% and 107.5% and 108.1%
  Δ %: 5.5% and 4.8% and 16.2% and 7.5% and 6.0% and 8.1%
[1]; [12]
  volume: 1418 and 1693 and 1970 and 1060 and 1218 and 1475
  Δ volume: 1277.2 and 1547.4 and 1819.3 and 905.2 and 1056.5 and 1306.4
[1]; [13]
  Day 41 % of baseline (weight): 101.5%
  Day 41 volume: 395.4
  Day 41 weight: 19.1
  Day 45 volume: 527.3
  Day 45 weight: 19.9
[1]; [14]
  Day 41 Δ % (weight): 1.5%
  Day 41 Δ volume: 249.9
  Day 41 Δ weight: 0.3
  Day 45 Δ % (weight): 5.6%
  Day 45 Δ volume: 381.9
  Day 45 Δ weight: 1.0
